Like-named read-outs stand apart in the source and are kept apart here.
How the values were obtained:
Type in all cases: cell-based
[1] = tested on: human immunodeficiency virus-1 (HIV-1); assay: anti-HIV MAGI assay; conditions: Human immunodeficiency virus 1, MAGI, anti-HIV; average of numeric determinations; read-out: Avg. EC50
From the text: We examined the inhibitory activities of DDPs against various species of bacteria (both gram-negative and gram-positive bacteria), fungi and viruses. […] In contrast, preliminary screening of the DDPs for anti-viral agents with hepatitis B virus (HBV), measles virus (MV), Epstein-Barr virus (EBV), herpes simplex virus (HSV) and human immunodeficiency virus-1 (HIV-1) indicated their selective inhibition of HIV.

[2] = cytotoxicity in Drosophila DL1 cells; conditions: Drosophila, DL1 cells (embryonic macrophage-derived), DL1 cells
Protocol: (§1) We screened the DDPs on the Drosophila assay system for cytotoxicity, inhibitory activity of innate immune signalling and insecticidal activity. The cytotoxicity of the DDPs was evaluated using two cell lines, embryonic macrophage-derived DL1 cells[58]–[60] and larval blood cell-derived l(2)mbn cells, and their IC50 values are listed in Supplementary Table 23.

[3] = tested on: DL1 cells; assay: cytotoxicity in Drosophila DL1 cells; conditions: DL1 cells; for IC50: Drosophila melanogaster, cytotoxicity
Protocol: as §1

[4] = cytotoxicity in Drosophila l(2)mbn cells; conditions: Drosophila, l(2)mbn cells (larval blood cell-derived)
Protocol: as §1

[5] = tested on: l(2)mbn cells; assay: cytotoxicity in Drosophila l(2)mbn cells; conditions: for Luminescence Raw1: replicate 1; for Luminescence Raw2: replicate 2
Protocol: as §1

[6] = replicate 1, relative to DMSO 1%, read-out: % viability, viability 1
[7] = replicate 2, relative to DMSO 1%, read-out: % viability, viability 2

CC(C)=CCC/C(C)=C/CC/C(C)=C/CC/C(C)=C/Cc1c(O)c(C)c(C)oc1=O [Compound 2]
EC50 [1]: 0.157 µM

C=C1CCC2C(C)(CC(=O)C=C(C)C)C(O)CCC2(C)C1Cc1c(OC)oc(C)c(C)c1=O (stereo not drawn) [Compound 25]
viability at 0.04 µM [2, 6]: 135%
viability at 0.04 µM [2, 7]: 136%
viability at 0.2 µM [2, 6]: 130%
viability at 0.2 µM [2, 7]: 129%
viability at 1 µM [2, 6]: 128%
viability at 1 µM [2, 7]: 133%
viability at 4 µM [2, 6]: 130%
viability at 4 µM [2, 7]: 124%
viability at 10 µM [2, 6]: 110%
viability at 10 µM [2, 7]: 127%
viability at 20 µM [2, 6]: 19.2%
viability at 20 µM [2, 7]: 27.2%
Luminescence Raw1 ([3]; 0.04 µM, replicate 1): 2772839
Luminescence Raw2 ([3]; 0.04 µM, replicate 2): 2800252
Luminescence Raw1 ([3]; 0.2 µM, replicate 1): 2673287
Luminescence Raw2 ([3]; 0.2 µM, replicate 2): 2657777
Luminescence Raw1 ([3]; 1 µM, replicate 1): 2635775
Luminescence Raw2 ([3]; 1 µM, replicate 2): 2736769
Luminescence Raw1 ([3]; 4 µM, replicate 1): 2684468
Luminescence Raw2 ([3]; 4 µM, replicate 2): 2551374
Luminescence Raw1 ([3]; 10 µM, replicate 1): 2257781
Luminescence Raw2 ([3]; 10 µM, replicate 2): 2619904
Luminescence Raw1 ([3]; 20 µM, replicate 1): 396244
Luminescence Raw2 ([3]; 20 µM, replicate 2): 560668
IC50 ([3]; average of two replicates, read-out: IC50 Average): 17.2 µM
IC50 ([3]; average±SEM, read-out: IC50): 17.2 ± 2.06 µM
IC50 ([3]; replicate 1, read-out: IC50 (1)): 15.1 µM
IC50 ([3]; replicate 2, read-out: IC50 (2)): 19.2 µM
viability at 0.04 µM [4, 6]: 124%
viability at 0.04 µM [4, 7]: 126%
viability at 0.2 µM [4, 6]: 130%
viability at 0.2 µM [4, 7]: 134%
viability at 1 µM [4, 6]: 121%
viability at 1 µM [4, 7]: 140%
viability at 4 µM [4, 6]: 137%
viability at 4 µM [4, 7]: 148%
viability at 10 µM [4, 6]: 125%
viability at 10 µM [4, 7]: 136%
viability at 20 µM [4, 6]: 87.1%
viability at 20 µM [4, 7]: 97.2%
Luminescence Raw1 ([5]; 0.04 µM): 3193720
Luminescence Raw2 ([5]; 0.04 µM): 3243139
Luminescence Raw1 ([5]; 0.2 µM): 3343782
Luminescence Raw2 ([5]; 0.2 µM): 3450197
Luminescence Raw1 ([5]; 1 µM): 3097409
Luminescence Raw2 ([5]; 1 µM): 3603150
Luminescence Raw1 ([5]; 4 µM): 3528838
Luminescence Raw2 ([5]; 4 µM): 3786770
Luminescence Raw1 ([5]; 10 µM): 3209953
Luminescence Raw2 ([5]; 10 µM): 3480138
Luminescence Raw1 ([5]; 20 µM): 2234271
Luminescence Raw2 ([5]; 20 µM): 2495041
IC50 ([5]; Drosophila melanogaster, cytotoxicity, average±SEM, read-out: IC50): > 20 µM
